The test system of experiment [1] is PluxC-gfp reporter in V. vulnificus. The experiment can be described thus: PluxC-gfp reporter in V. vulnificus strains. The note with it: Vibrio vulnificus.
Experiment [2] concerns the target T1, V. campbellii LuxR (Vibrio harveyi, UniProt P21308).
T1 construct: expressed in transfected cells; host or cells: E. coli DH10B with pKM699 and reporter pJV064
The experiment can be described thus: E. coli dual-color bioassay (pKM699 LuxR, pJV064 reporter). It is filed as cell-based. The note with it: for Inhibition of LuxR in the E. coli bioassay (in words): GFP and mCherry reporters. The text has this:
Previously, we developed a bioassay that consists of a dual-color fluorescent reporter plasmid that reports both LuxR activities: the luxCDABE promoter is activated by LuxR and drives expression of gfp, and the VIBHAR_05222 promoter is repressed by LuxR and drives expression of mCherry (van Kessel et al., 2013b) (FIG. 2A). We used this reporter plasmid in an E. coli strain that also contains a plasmid expressing LuxR from its native promoter.
A bioassay was developed to monitor LuxR function that consists of a dual-color reporter plasmid (pJV064) that reports both activities: the luxCDABE promoter is activated by LuxR and drives expression of gfp, and the 05222 promoter is repressed by LuxR and drives expression of mCherry (van Kessel, Ulrich et al. 2013). This reporter plasmid was used in an E. coli strain that also contains a plasmid (pKM699) expressing LuxR from its native promoter. E. coli cultures containing these two plasmids were grown at 30° C. in LB medium with chloramphenicol (10 μg/ml) and tetracycline (10 μg/ml) to select for the two plasmids. Compounds were added to the cultures at a range of concentrations, and the cultures were incubated for 16 hours shaking at 30° C.
The dual-promoter fluorescence reporter assays were performed using E. coli strain DH10B containing two plasmids: 1) plasmid pJV064 containing the PluxC fused to GFP and P05222fused to mCherry to assess LuxR transcriptional regulation, and 2) plasmid pKM699 expressing V. campbellii luxR under control of its native promoter or empty vector pLAFR2.

Experiment [3] relates to Vibrio strains. The experiment can be described thus: luxCDABE reporter across five Vibrio species. The note with it: each Vibrio strain except V. cholerae.
The subject of experiment [4] is PluxC-gfp reporter in V. parahaemolyticus. Description: PluxC-gfp reporter in V. parahaemolyticus strains. The note with it: Vibrio parahaemolyticus.
The test system of experiment [5] is PluxC-gfp reporter in V. campbellii. Description: PluxC-gfp reporter in V. campbellii strains. The note with it: Vibrio campbellii.
Experiment [6] deals with T1, V. campbellii LuxR. Description: qRT-PCR and western blots in wild-type V. campbellii. The note with it: for luxC transcripts / 05222 transcripts: qRT-PCR; for luxC transcripts: to levels in a ΔluxR strain; for 05222 transcripts: wild-type cultures; for LuxR protein level: western blot, wild-type V. campbellii. It is filed as cell-based. The text has this:
The Qstatin-treated regulon overlapped with the SmcR regulon by more than 50%, with similar gene expression fold-changes. […] This is important to note because LuxR and HapR proteins are known to autorepress their own expression. To test the effects of adding inhibitors to V. campbellii LuxR, we added 10A, 10B, and 10C to wild-type V. campbellii and used qRT-PCR and western blots to examine the effects on luxR transcript and protein levels. We also examined the transcript levels for luxC and 05222 genes that are directly activated or repressed by LuxR, respectively.
All PCR reactions were performed using Phusion HF polymerase (NEB). T4 polynucleotide kinase (T4 PNK) used in EMSAs and all other enzymes were purchased from NEB and used according to manufacturer's instructions. Site-directed mutagenesis for construction of plasmids expressing mutant proteins was carried out using the Agilent QuikChange II XL Site-Directed Mutagenesis Kit. All oligonucleotides were purchased from Integrated DNA Technologies (IDT).ALL plasmid constructs were confirmed by DNA sequencing (Eurofins). Cloning details for plasmids are available upon request. Western blot analysis was performed as previously described (van Kessel et al., 2013b), except that new anti-LuxR antibodies were generated through Cocalico against purified LuxR protein. In addition, the western blots were probed with anti-RpoB (Neoclone).
Then cells were induced with 50 μM IPTG and grown under the same conditions until cells reached an OD600 of approximately 1, at which 5 mL of cells were collected by centrifugation and frozen in liquid N2. RNA was extracted using a Trizol/chloroform extraction protocol previously described (Rutherford et al., 2011). Quantitative real-time PCR (qRT-PCR) was performed as previously described (Chaparian et al., 2016). Samples were normalized to the internal standard hfq gene. The ΔΔCT values were used to analyze data from three independent biological replicates. Symbols on graphs represent the mean values and error bars represent the standard deviations. All statistical analysis was performed with functions from GraphPad Prism version 8.
(In general: Quantitative PCR measures a nucleic acid by following its amplification.)

The subject of experiment [7] is PluxC-gfp reporter in V. coralliilyticus. The experiment can be described thus: PluxC-gfp reporter in V. coralliilyticus strains.
In experiment [8] the test system is SmcR regulon. The note with it: cited from earlier work.
For experiment [9], the target named is T2, SmcR (Vibrio vulnificus, UniProt Q9L8G8). The note with it: Kim et al., 2018; cited from earlier work.
T2 sequence (Q9L8G8 entry or part of it): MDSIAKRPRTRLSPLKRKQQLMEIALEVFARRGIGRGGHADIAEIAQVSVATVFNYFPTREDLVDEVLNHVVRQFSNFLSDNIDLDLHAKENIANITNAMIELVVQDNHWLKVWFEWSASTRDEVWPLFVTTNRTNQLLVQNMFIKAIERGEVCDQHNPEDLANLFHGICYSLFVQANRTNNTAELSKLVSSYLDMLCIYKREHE
For experiment [10], the system named is V. campbellii, V. parahaemolyticus, and V. vulnificus. The note with it: cited from earlier work.
In experiment [11] the target is T2, SmcR. The experiment can be described thus: ITC analysis of SmcR interaction with inhibitors. It is filed as binding, V. vulnificus. An excerpt: To test the validity of the modelling predictions for PTSP, we performed isothermal titration calorimetry (ITC) to determine the binding affinity of SmcR and LuxR for PTSP. […] We noted that PTSP binding to both LuxR and SmcR had lower entropy and enthalpy compared to SmcR binding to Qstatin. […] Thus, we conclude that the efficacy of PTSP inhibition in vivo in these two Vibrio species correlates to the binding affinity determined in vitro for these two proteins.
SmcR and LuxR were purified as described previously. EMSAs were conducted as described previously using oligonucleotides corresponding to the luxC and vvpE promoter sequences. ITC analysis was conducted using purified LuxR or His-tagged SmcR, each in gel-filtration buffer (25 mM Tris pH 7.5, 300 mM NaCl, 0.5 mM EDTA, 1 mM DTT, 2% DMSO). All molecules analyzed were diluted in the same buffer. The samples were degassed for 10 min by vacuum aspiration. Titrations were performed on a Nano-ITC (TA Instruments). […] Thermograms were analyzed using NanoAnalyze software with the independent binding model.

The test system of experiment [12] is V. vulnificus. The experiment can be described thus: Growth of V. vulnificus with inhibitor. It is filed as cell-based. The note with it: high concentrations. An excerpt: (§1) Many sulfonamide-containing compounds are known to target the folate synthesis pathway in bacteria and inhibit growth (bacteriostatic), and thus these “sulfa drugs” have been used as broad-spectrum antibiotics for decades (Hammoudeh et al., 2013, Roland et al., 1979). […] We also tested the stability of the inhibitors in bacterial cultures and the timing of the inhibitory effect.

The test system of experiment [13] is V. campbellii. The experiment can be described thus: Growth of V. campbellii with inhibitor. Format: cell-based. The note with it: high concentrations.
Text: as §1

The mark [14] stands for this setting: ATCC27562, read-out: Inhibition (IC50) of the PluxC-gfp reporter, Vvul ATCC 27562.
Where [15] appears, read: read-out: Inhibition (IC50) of the PluxC-gfp reporter, Vvul CMPC6.
The mark [16] stands for this setting: read-out: Inhibition (IC50) of the PluxC-gfp reporter, Vvul YJ016.
Setting [17] is: read-out: IC50 in the bioassay (approximate).
Where [18] appears, read: read-out: Inhibition (IC50) of the PluxC-gfp reporter, Vpara 12-297/B.
The mark [19] stands for this setting: read-out: Inhibition (IC50) of the PluxC-gfp reporter, Vpara D4.
Setting [20] is: read-out: Inhibition (IC50) of the PluxC-gfp reporter, Vpara RIMD 2210633.
Where [21] appears, read: ATCC25920, read-out: Inhibition (IC50) of the PluxC-gfp reporter, Vcamp ATCC 25920.
Where [22] appears, read: read-out: Inhibition (IC50) of the PluxC-gfp reporter, Vcamp BB120.
Where [23] appears, read: read-out: Inhibition (IC50) of the PluxC-gfp reporter, Vcamp HY01.
Where [24] appears, read: read-out: Inhibition (IC50) of the PluxC-gfp reporter, Vcoral OCN 008.
Where [25] appears, read: read-out: Inhibition (IC50) of the PluxC-gfp reporter, Vcoral OCN 014.

pIC50, pKd: −log10 of the molar value. Where “and” joins values, the source holds several entries; their conditions need not be identical. Equal entries are not always repeated. Where two headings read alike, the source gives them in different places.

T1 sequence (P21308 whole entry): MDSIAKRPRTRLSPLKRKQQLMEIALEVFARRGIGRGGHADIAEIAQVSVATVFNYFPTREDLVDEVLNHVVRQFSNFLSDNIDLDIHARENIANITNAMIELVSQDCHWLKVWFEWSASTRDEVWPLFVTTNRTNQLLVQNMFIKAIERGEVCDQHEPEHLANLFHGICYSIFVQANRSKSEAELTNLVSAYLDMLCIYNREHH

On to `O=S(=O)(c1ccc(Br)s1)n1ccc(-c2ccccc2)n1` [Compound 10A, 1-((5-bromothiophen-2-yl)sulfonyl)-3-phenyl-1H-pyrazole], for which the pIC50 in experiment [1] (setting [14]) was 8.84; in experiment [1] (setting [15]) it was 7.47; in [1] (setting [16]), 8.23; in experiment [2] (setting [17]), 5.70 to 6.00; in experiment [4] (setting [18]) it was 5.99; in experiment [4] (setting [19]), 6.06. The pIC50 was 6.20 in experiment [4] (setting [20]); 7.30 in [5] (setting [21]); 6.24 in experiment [5] (setting [22]); 6.40 in experiment [5] (setting [23]); 5.68 in [7] (setting [24]); 5.70 in [7] (setting [25]). Also, the “Inhibition of LuxR in the E. coli bioassay (in words)” value (“Inhibition of LuxR” below) in experiment [2] is recorded as “most potent”. Besides, the “IC50 values lower than Qstatin” value in experiment [3] is listed as around 10 fold. Besides, the luxC transcripts entry in experiment [6] is “significantly decreased”. Besides, the 05222 transcripts entry in experiment [6] is “significantly increased”. In addition, the LuxR protein level result in experiment [6] is “visible increase”.

In general, pKd refers to −log10 of the Kd, conventionally taken in molar units. As to `O=S(=O)(c1ccc(Br)s1)n1cccn1` [Qstatin, 1-((5-bromothiophen-2-yl)sulfonyl)-1H-pyrazole, reference compound], the “Off-target effects in the ΔsmcR strain” value in [8] (RNA-seq, ΔsmcR strain) is “no significant off-target effects”. Further, the “Overlap of Qstatin-treated regulon with the SmcR regulon” value in experiment [8] (RNA-seq) was “more than 50%”. In experiment [8] (wild-type V. vulnificus), the “Increase of smcR transcript levels” value is 2.5 fold. Also, the “Effect on SmcR DNA binding affinity” value in [9] is given as “very little effect”. Moreover, the pIC50 in experiment [1] (ATCC27562, read-out: IC50, V. vulnificus ATCC 27562, luxCDABE reporter plasmid) was 6.40; in experiment [1] (setting [14]), 6.30; in experiment [1] (setting [15]), 5.68; in experiment [1] (setting [16]) it was 6.05; in experiment [2] (Table 2, titration, 16 hours, read-out: Inhibition (IC50) of GFP production by LuxR in E. coli bioassay) it was 5.30; in [2] (setting [17]) it was 5.00 to 5.30 and 4.70 to 5.00. Besides, the pIC50 in experiment [4] (read-out: IC50, V. parahaemolyticus RIMD2210633, luxCDABE reporter plasmid) is 5.55; in experiment [4] (setting [18]), 5.77; in experiment [4] (setting [19]) it was 5.52; in [4] (setting [20]), 5.64; in [5] (setting [21]) it was 6.10; in [5] (read-out: IC50, V. campbellii BB120, luxCDABE), 5.89. Moreover, the pIC50 was 5.40 in [5] (setting [22]); 5.92 in experiment [5] (setting [23]); 5.44 in experiment [7] (read-out: IC50, V. coralliilyticus OCN008, luxCDABE reporter plasmid); 4.94 in [7] (setting [24]); 4.65 in experiment [7] (setting [25]). Besides, in experiment [2], the “Inhibition of LuxR” value is “inhibited LuxR activity”. Besides, the “Inhibition of pathogenesis in shrimp infection assay” value in [10] was “inhibits pathogenesis”. In addition, the Ka in experiment [11] was 1.36e+06 M⁻¹. For the same compound, the ΔG in experiment [11] was -8.37 kcal/mol and -8.365 kcal/mol. In addition, in experiment [11], the ΔH was -19.58 kcal/mol. Also, the ΔS in experiment [11] is given as −157.30 J/mol · K. Moreover, the “−TΔS” value in [11] is 11.21 kcal/mol. Also, the pKd in [11] (25° C., read-out: Kd) was 6.13.

Turning to `O=S(=O)(c1ccc(Cl)s1)n1ccc(-c2ccccc2)n1` [Compound 10C, 1-((5-chlorothiophen-2-yl)sulfonyl)-3-phenyl-1H-pyrazole], the pIC50 is 9.12 in experiment [1] (setting [14]); 7.22 in experiment [1] (setting [15]); 8.26 in [1] (setting [16]); 5.70 to 6.00 in [2] (setting [17]); 5.98 in [4] (setting [18]); 5.89 in experiment [4] (setting [19]). In addition, the pIC50 in [4] (setting [20]) is 6.17; in experiment [5] (setting [21]), 7.05; in experiment [5] (setting [22]), 6.15; in experiment [5] (setting [23]) it was 6.80; in experiment [7] (setting [24]) it was 5.97; in experiment [7] (setting [25]) it was 5.62. The “Inhibition of LuxR” value in experiment [2] is recorded as “most potent”. The “IC50 values lower than Qstatin” value in [3] is around 10 fold. Besides, the luxC transcripts entry in experiment [6] is given as “significantly decreased”. Besides, the 05222 transcripts entry in experiment [6] was “significantly increased”. For the same compound, in experiment [6], the LuxR protein level result is recorded as “visible increase”. Besides, the “Growth rate or growth yield” value in experiment [12] and in experiment [13] was “did not alter growth rate or growth yield” throughout.
